Reference: PubChem BioAssay (NCI)
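96-well plates; 48 h exposure; 5 concentrations. Endpoints by linear interpolation between flanking doses. Not reached: highest tested concentration assigned. The concentration for 50% growth inhibition is given as GI50. Definition used: TGI = concentration required for complete inhibition of growth.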

Experiments:
Experiment in all cases: NCI-60 cell line screen, 48 h
[1] = system: 786-0 renal
[2] = system: DU-145 prostate
[3] = system: HCC-2998 colon
[4] = system: HCT-15 colon
[5] = system: HS 578T breast
[6] = system: LOX IMVI melanoma
[7] = system: MCF7 breast
[8] = system: NCI-H460 lung
[9] = system: OVCAR-4 ovarian
[10] = system: OVCAR-5 ovarian
[11] = system: PC-3 prostate
[12] = system: SF-268 CNS
[13] = system: SK-OV-3 ovarian
[14] = system: SNB-19 CNS
[15] = system: U251 CNS
[16] = system: UACC-257 melanoma
[17] = system: HOP-62 NSCLC
[18] = system: UO-31 renal

Compound | TGI [1] [µM] | TGI [2] [µM] | TGI [3] [µM] | TGI [4] [µM] | TGI [5] [µM] | TGI [6] [µM] | TGI [7] [µM] | TGI [8] [µM] | TGI [9] [µM] | TGI [10] [µM] | TGI [11] [µM] | TGI [12] [µM] | TGI [13] [µM] | TGI [14] [µM] | TGI [15] [µM] | TGI [16] [µM] | TGI [17] [µM] | TGI [18] [µM] | GI50 [3] [µM] | GI50 [17] [µM]
CC(=O)c1c(-c2ccc(Cl)cc2)c(-c2ccc(Cl)cc2)n[nH]c1=O | > 100 | > 100 | > 100 | > 100 | > 100 | 73.9 | > 100 | > 100 | 94.8 | > 100 | > 100 | > 100 | > 100 | > 100 | > 100 | > 100 | – | – | – | –
NC(CSS(=O)(=O)O)=NC1CC2CCC1C2 (centres undefined) | > 100 | > 100 | – | > 100 | > 100 | > 100 | > 100 | > 100 | > 100 | – | > 100 | > 100 | > 100 | > 100 | > 100 | > 100 | > 100 | – | – | –
C=C(C)C1CC=C(C)C(=O)C1 (centres undefined) | > 100 | > 100 | > 100 | > 100 | > 100 | > 100 | > 100 | > 100 | > 100 | > 100 | > 100 | > 100 | – | > 100 | > 100 | > 100 | > 100 | > 100 | – | –
CN1CCCC2C(c3ccccc3)C(C3=NCCCC3)C(c3ccccc3)CC21 (centres undefined) | > 100 | > 100 | 31.4 | > 100 | 96.7 | 55.2 | > 100 | > 100 | > 100 | > 100 | > 100 | > 100 | > 100 | > 100 | > 100 | 35 | > 100 | – | – | –
CCC1CN2CCc3cc(OC)c(OC)cc3C2CC1CC1c2cc(OC)c(OC)cc2CCN1C(=O)C(N)Cc1ccccc1 (centres undefined) | – | – | 5.66 | 10.9 | – | 10.9 | – | 9.23 | – | 9.55 | – | 13.7 | 17.8 | 6.98 | 5.97 | 11.6 | 7.78 | 5.85 | – | –
CCN(CC)C(=O)c1cc(OC(C)C)ccc1-c1c(C)cc(OC(C)C)c(OC)c1OC | – | – | > 100 | > 100 | – | > 100 | – | > 100 | > 100 | > 100 | – | > 100 | > 100 | > 100 | > 100 | – | > 100 | > 100 | – | –
COc1ccccc1C[C@@H]1OC2(C=CC(=O)CC2SC(=O)c2ccccc2)O[C@H]1Cc1ccccc1OC (some centres undefined) | 0.973 | 18 | – | 4.75 | 4.73 | 1.9 | 2.36 | 7.87 | 3.69 | 2.63 | 4.71 | 2.44 | 5.04 | 4.94 | 2.81 | 3.02 | 3.03 | 2.54 | – | –
COc1cc2c(cc1C)NC(=O)/C2=C/c1cccnc1 | > 52.5 | 27.3 | 8.28 | > 78 | 97.2 | > 53.8 | 32.3 | 35.4 | 56.4 | 27.9 | > 64.6 | 41 | 34.3 | 32.1 | > 52.5 | 27.7 | 30.5 | 26.2 | – | –
O=c1[nH]c2cccc([N+](=O)[O-])c2c(=O)n1-c1ccc(Cl)cc1 | 55.9 | 41.1 | 31.4 | 30.2 | 42 | 59.5 | 25.5 | 25.8 | 16.4 | 36.5 | 38.1 | 30.4 | 28 | 45 | 59.7 | 29.6 | 61 | – | – | –
CC(=O)NC1C(OCc2ccccc2)OC(CO)C(O)C1OC(C)C(=O)NC(C(=O)NC(CCC(=O)NCCCC(=O)Nc1ccc2c(c1)CN1C(=O)c3ccccc3C1=N2)C(N)=O)C(C)C (centres undefined) | > 100 | > 100 | > 100 | > 100 | > 100 | > 100 | > 100 | > 100 | > 100 | > 100 | > 100 | > 100 | > 100 | > 100 | > 100 | > 100 | > 100 | > 100 | – | –
[O-][n+]1nc(N2CCOCC2)nc2ccccc21 | > 100 | > 100 | > 100 | > 100 | > 100 | > 100 | > 100 | – | – | > 100 | > 100 | > 100 | > 100 | > 100 | > 100 | > 100 | > 100 | > 100 | – | –
NC(=O)NC1NC(=O)NC1=O (centres undefined) | > 100 | > 100 | > 100 | > 100 | > 100 | > 100 | > 100 | > 100 | > 100 | > 100 | > 100 | > 100 | > 100 | > 100 | > 100 | > 100 | > 100 | > 100 | – | –
COc1cc2c(/C=C3/C(=O)Nc4ccc(O)cc43)c(Cl)n(Cc3ccccc3)c2cc1C | 3.28 | 26 | 0.799 | > 22.6 | 3.36 | 24.9 | – | > 43.4 | > 100 | 14.5 | > 87.1 | 24.9 | > 60.2 | 18.3 | > 42.4 | > 56.5 | 9.39 | > 100 | 0.201 | 0.403
CCC(C)C(=O)OC1C(=O)OC2CC3C(C)=CC(=O)C(O)C3(C)C3C4(O)OCC23C1C(C)C4O (centres undefined) | – | 0.0977 | 0.227 | 0.944 | 0.275 | 0.0154 | > 100 | 0.659 | 0.262 | – | 0.481 | 0.124 | 4.11 | – | < 0.0317 | 1.34 | 0.149 | 0.278 | – | –
CCOC(=O)/C=C/CC(C)(C)COC(C)=O | – | > 10 | > 10 | > 10 | > 10 | > 10 | > 10 | > 10 | > 10 | > 10 | > 10 | > 10 | > 10 | – | – | > 10 | – | > 10 | – | –
CC(=O)OC1C=C(C=O)C(O)(C=O)C2(C)CCCC(C)(C)C12 (centres undefined) | – | – | 5.75 | 1.7 | – | 2.93 | 5.49 | 4.21 | 4.01 | 8.16 | – | 5.35 | 8.68 | 12 | 7.39 | 5.68 | 14.6 | 5.66 | – | –
CC(C)=CCc1c(O)cc(O)c2c1OC(c1ccc(O)cc1)C(O)C2=O (centres undefined) | – | – | 56.3 | 55.7 | – | 35.7 | – | 77.3 | > 100 | 61.1 | – | > 100 | > 100 | > 100 | 74.5 | > 100 | 36.3 | 90.4 | – | –
NCC(Cl)C(O)c1cnc(N)[nH]1 (centres undefined) | – | – | 5.12 | > 63.2 | – | 16.8 | > 65.5 | > 44.1 | 10.2 | 20.6 | – | > 73.8 | > 44.6 | 19.3 | > 100 | 32 | 5.98 | 6.38 | – | –
Cc1[nH]c(=O)[nH]c(=O)c1/C=C/C(=O)NC(CO)CC(C)C (centres undefined) | – | – | > 375 | > 375 | – | > 375 | > 375 | > 187 | > 375 | > 375 | – | > 375 | > 375 | > 375 | > 375 | > 375 | > 375 | > 375 | – | –
N=C1C(=N)c2ccccc2-c2ccccc21.[Cl-].[Ru+2].c1cnc2c(c1)ccc1cccnc12.c1cnc2c(c1)ccc1cccnc12 | > 100 | – | > 100 | > 100 | – | 75.1 | – | > 100 | 77.7 | > 100 | – | > 100 | > 100 | – | 73.9 | 46.6 | > 100 | > 100 | – | –
COc1ccc(C2C(C(=O)O)=C(CO)Oc3cc4c(cc32)OCO4)cc1 (centres undefined) | – | – | – | > 100 | – | > 100 | – | > 100 | > 100 | – | – | – | > 100 | > 100 | > 100 | > 100 | > 100 | > 100 | – | –
